For the assay, the target named is T1, hMCHR (MCH receptor) (Homo sapiens, UniProt Q99705).
T1 construct: (or internally produced); host or cells: CHO (Chinese hamster ovary) cells, membrane preparation
The experiment in a line: MCH Assay PCOP Protocol ([125I]-MCH SPA binding to hMCHR-CHO membranes).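 Further: A 0.4–50 nM B 51–500 nM C 501–2500 nM.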 Conditions: [125I]-MCH binding to hMCHR-CHO membranes; class symbols for ranges of Ki; read-out: Activity (Ki range). The procedure, abridged:
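SPA binding with 10 μg hMCHR-CHO membranes and WGA-SPA beads in 25 mM HEPES pH 7.4, 10 mM NaCl, 10 mM MgCl2, 5 mM MnCl2, 0.1% BSA.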

The structures appear in SMILES notation.

T1 sequence (Q99705 whole entry): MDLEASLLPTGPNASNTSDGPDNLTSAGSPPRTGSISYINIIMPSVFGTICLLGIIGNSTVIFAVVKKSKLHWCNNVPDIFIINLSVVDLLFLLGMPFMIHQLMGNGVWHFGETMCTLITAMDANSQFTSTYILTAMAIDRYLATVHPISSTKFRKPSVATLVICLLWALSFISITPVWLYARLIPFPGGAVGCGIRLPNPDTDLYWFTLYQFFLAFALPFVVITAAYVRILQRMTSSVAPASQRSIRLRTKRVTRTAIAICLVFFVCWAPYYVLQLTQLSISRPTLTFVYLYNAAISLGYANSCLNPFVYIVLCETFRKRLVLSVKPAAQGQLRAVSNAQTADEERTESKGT

Broadly, the Ki is the dissociation constant of the complex between target and ligand, obtained from inhibition or displacement. As to `CN1CCCC1CCNCCC(CNC(=O)Nc1ccc(Cl)c(Cl)c1)c1ccc(Cl)c(Cl)c1` (stereo not drawn) [Example 298], the Ki was 501 to 2500 nM. Consider `O=C(NCC(CCN1CCCC1)c1ccc(Cl)c(Cl)c1)Nc1cccc(C(F)(F)F)c1` (stereo not drawn) [Example 299], for which the Ki is 501 to 2500 nM.

As for `CN1CCCC1CCNCCC(CNC(=O)Nc1cccc(C(F)(F)F)c1)c1ccc(Cl)c(Cl)c1` (stereo not drawn) [Example 300], the Ki fell in the range of 501 to 2500 nM. Consider `CN1CCCC1CCNCCC(CNC(=O)Nc1cc(Cl)cc(Cl)c1)c1ccc(Cl)c(Cl)c1` (stereo not drawn) [Example 301], for which the Ki fell in the range of 501 to 2500 nM. In the case of `O=C(NCC(CCNCc1ccc2c(c1)OCO2)c1ccc(Cl)c(Cl)c1)Nc1cccc(C(F)(F)F)c1` (stereo not drawn) [Example 302], the Ki is 501 to 2500 nM. Regarding `Cn1cnc(CCNCCC(CNC(=O)Nc2cccc(C(F)(F)F)c2)c2ccc(Cl)c(Cl)c2)c1` (stereo not drawn) [Example 303], the Ki was in the range of 501 to 2500 nM.

Take `CN(C)CCCNCCC(CNC(=O)Nc1cc(Cl)cc(Cl)c1)c1ccc(Cl)c(Cl)c1` (stereo not drawn) [Example 304]: the Ki is 501 to 2500 nM. On to `CN(C)CCCNCCC(CNC(=O)Nc1ccc(Cl)c(Cl)c1)c1ccc(Cl)c(Cl)c1` (stereo not drawn) [Example 305], for which the Ki was in the range of 501 to 2500 nM.

On to `CN(C)C1CCN(CCC(CNC(=O)Nc2cccc(C(F)(F)F)c2)c2ccc(Cl)c(Cl)c2)C1` (stereo not drawn) [Example 306], for which the Ki lay within 501 to 2500 nM.

In the case of `O=C(NCC(CCN1CCNCC1)c1ccc(Cl)c(Cl)c1)Nc1ccc(Cl)c(Cl)c1` (stereo not drawn) [Example 307], the Ki is 501 to 2500 nM. In the case of `O=C(NCC(CCN1CCNCC1)c1ccc(Cl)c(Cl)c1)Nc1cc(Cl)cc(Cl)c1` (stereo not drawn) [Example 308] it was 501 to 2500 nM. As for `O=C(NCC(CCN1CCNCC1)c1ccc(Cl)c(Cl)c1)Nc1cccc(C(F)(F)F)c1` (stereo not drawn) [Example 309], the Ki fell in the range of 501 to 2500 nM. Regarding `CN(C)CCCNCCC(CNC(=O)Nc1cccc(C(F)(F)F)c1)c1ccc(Cl)c(Cl)c1` (stereo not drawn) [Example 310], the Ki was in the range of 501 to 2500 nM. In the case of `O=C(NCC(CCN1CCC(N2CCCCC2)CC1)c1ccc(Cl)c(Cl)c1)Nc1cccc(Br)c1` (stereo not drawn) [Example 312], the Ki was 51 to 500 nM. Consider `O=C(NCC(CCNC1CCC1)c1ccc(Cl)c(Cl)c1)Nc1cc(C(F)(F)F)cc(C(F)(F)F)c1` (stereo not drawn) [Example 314], for which the Ki lay in the range of 51 to 500 nM.

For `O=C(NCC(CCN1CCC(N2CCCCC2)CC1)c1ccc(Cl)c(Cl)c1)Nc1ccc([N+](=O)O)cc1` (stereo not drawn) [Example 315], the Ki is 51 to 500 nM.

Regarding `CCNC(=O)NC1CCN(CCC(CNC(=O)Nc2cc(Cl)cc(Cl)c2)c2ccc(Cl)c(Cl)c2)C1` (stereo not drawn) [Example 316], the Ki lay within 501 to 2500 nM.

For the molecule `O=C(NCC(CCN1CCC(N2CCCCC2)CC1)c1ccc(Cl)c(Cl)c1)Nc1cccc([N+](=O)[O-])c1` (stereo not drawn) [Example 317], the Ki is 501 to 2500 nM. As for `O=C(NCC(CCNC1CCNC1)c1ccc(Cl)c(Cl)c1)Nc1cc(C(F)(F)F)cc(C(F)(F)F)c1` (stereo not drawn) [Example 318], the figure is 501 to 2500 nM; as for `O=C(NCC(CCNCc1ccc2c(c1)OCO2)c1ccc(Cl)c(Cl)c1)Nc1cc(C(F)(F)F)cc(C(F)(F)F)c1` (stereo not drawn) [Example 319], 501 to 2500 nM. Consider `O=C(NCC(CCNCCc1c[nH]c2ccccc12)c1ccc(Cl)c(Cl)c1)Nc1cc(C(F)(F)F)cc(C(F)(F)F)c1` (stereo not drawn) [Example 320], for which the inhibition constant (Ki) lay within 501 to 2500 nM.

As for `CCNC(=O)NC1CCN(CCC(CNC(=O)Nc2cc(Cl)cc(Cl)c2)c2ccc(Cl)cc2)C1` (stereo not drawn) [Example 321], the Ki is 501 to 2500 nM. In the case of `NC1CCN(CCC(CNC(=O)Nc2cc(Cl)cc(Cl)c2)c2ccc(Cl)c(Cl)c2)CC1` (stereo not drawn) [Example 322] it was 501 to 2500 nM. On to `CCNC(=O)NC1CCN(CCC(CNC(=O)Nc2cc(Cl)cc(Cl)c2)c2ccc(Cl)c(Cl)c2)CC1` (stereo not drawn) [Example 323], for which the Ki was in the range of 501 to 2500 nM. For `Cc1ccc(C(CCN2CCC(N)CC2)CNC(=O)Nc2cc(Cl)cc(Cl)c2)cc1` (stereo not drawn) [Example 324], the Ki lay within 501 to 2500 nM. On to `O=C(NCC(CCN1CCC(N2CCCCC2)CC1)c1ccc(Cl)c(Cl)c1)Nc1ccc(Cl)cc1` (stereo not drawn) [Example 325], for which the Ki lay within 501 to 2500 nM.

For `O=C(NCC(CCN1CCC(N2CCCCC2)CC1)c1ccc(Cl)c(Cl)c1)Nc1ccc(Br)cc1` (stereo not drawn) [Example 326], the Ki lay within 501 to 2500 nM. Consider `CCNC(=O)NC1CCN(CCC(CNC(=O)Nc2cc(Cl)cc(Cl)c2)c2ccc(C)cc2)CC1` (stereo not drawn) [Example 327], for which the Ki lay in the range of 501 to 2500 nM. `O=C(NCC(CCNC1CCCC1)c1ccc(Cl)c(Cl)c1)Nc1cc(C(F)(F)F)cc(C(F)(F)F)c1` (stereo not drawn) [Example 328]: the Ki lay within 0.4 to 50 nM. As for `O=C(NCC(CCN1CCCC1)c1ccc(Cl)cc1)Nc1cc(C(F)(F)F)cc(C(F)(F)F)c1` (stereo not drawn) [Example 329], the Ki is 51 to 500 nM. `O=C(NCC(CCNCCc1c[nH]c2ccccc12)c1ccc(Cl)cc1)Nc1cc(C(F)(F)F)cc(C(F)(F)F)c1` (stereo not drawn) [Example 330]: the Ki was 51 to 500 nM. As for `COc1ccc(C(CCNCCc2c[nH]c3ccccc23)CNC(=O)Nc2cc(C(F)(F)F)cc(C(F)(F)F)c2)cc1` (stereo not drawn) [Example 331], the Ki fell in the range of 51 to 500 nM. Take `CN(C)CCNCCC(CNC(=O)Nc1cc(C(F)(F)F)cc(C(F)(F)F)c1)c1ccc(Cl)c(Cl)c1` (stereo not drawn) [Example 332]: the Ki was 51 to 500 nM.

`O=C(NCC(CCNCCc1c[nH]c2ccccc12)c1cccc(Cl)c1)Nc1cc(C(F)(F)F)cc(C(F)(F)F)c1` (stereo not drawn) [Example 333]: the Ki was 51 to 500 nM. For `O=C(NCC(CCN1CCCC1)c1cccc(Cl)c1)Nc1cc(C(F)(F)F)cc(C(F)(F)F)c1` (stereo not drawn) [Example 334], the Ki was in the range of 501 to 2500 nM. Regarding `COc1ccc(C(CCN2CCCC2)CNC(=O)Nc2cc(C(F)(F)F)cc(C(F)(F)F)c2)cc1` (stereo not drawn) [Example 335], the Ki was 501 to 2500 nM. As for `Cc1cccc(C(CCNCCc2c[nH]c3ccccc23)CNC(=O)Nc2cc(C(F)(F)F)cc(C(F)(F)F)c2)c1` (stereo not drawn) [Example 336], the figure is 501 to 2500 nM. In the case of `CN(C)CCCNCCC(CNC(=O)Nc1cc(C(F)(F)F)cc(C(F)(F)F)c1)c1ccc(Cl)cc1` (stereo not drawn) [Example 337] it was 501 to 2500 nM; in that of `Cc1cccc(C(CCN2CCCC2)CNC(=O)Nc2cc(C(F)(F)F)cc(C(F)(F)F)c2)c1` (stereo not drawn) [Example 338], 501 to 2500 nM. As for `O=S(=O)(NCC(CCNCCc1c[nH]c2ccccc12)c1cccc(F)c1)c1ccc(Cl)c(Cl)c1` (stereo not drawn) [Example 339], the figure is 501 to 2500 nM; as for `O=S(=O)(NCC(CCNCCc1c[nH]c2ccccc12)c1cccc(Cl)c1)c1ccc(Cl)c(Cl)c1` (stereo not drawn) [Example 340], 501 to 2500 nM. Turning to `O=C(NCC(CCN1CCCC1)c1cccc(F)c1)Nc1cc(C(F)(F)F)cc(C(F)(F)F)c1` (stereo not drawn) [Example 341], the Ki lay in the range of 501 to 2500 nM. For `O=S(=O)(NCC(CCNCCc1c[nH]c2ccccc12)c1ccc(Cl)cc1)c1ccc(Cl)c(Cl)c1` (stereo not drawn) [Example 342], the Ki lay in the range of 501 to 2500 nM. Regarding `O=C(NCC(CCNCCc1c[nH]c2ccccc12)c1cccc(F)c1)Nc1cc(C(F)(F)F)cc(C(F)(F)F)c1` (stereo not drawn) [Example 343], the Ki is 501 to 2500 nM. In the case of `CN(C)CCCNCCC(CNC(=O)Nc1cc(C(F)(F)F)cc(C(F)(F)F)c1)c1cccc(Cl)c1` (stereo not drawn) [Example 344] it was 501 to 2500 nM; in that of `COc1ccc(C(CCNCCCN(C)C)CNC(=O)Nc2cc(C(F)(F)F)cc(C(F)(F)F)c2)cc1` (stereo not drawn) [Example 345], 501 to 2500 nM; in that of `CN(C)CCCNCCC(CNC(=O)Nc1cc(C(F)(F)F)cc(C(F)(F)F)c1)c1cccc(F)c1` (stereo not drawn) [Example 346], 501 to 2500 nM. Turning to `Cc1cccc(C(CCNCCCN(C)C)CNC(=O)Nc2cc(C(F)(F)F)cc(C(F)(F)F)c2)c1` (stereo not drawn) [Example 347], the Ki was 501 to 2500 nM. As for `O=S(=O)(NCC(CCN1CCC(c2ccccc2)CC1)c1ccc(Cl)c(Cl)c1)c1ccc(Cl)c(Cl)c1` (stereo not drawn) [Example 348], the figure is 501 to 2500 nM; as for `O=S(=O)(NCC(CCN1CCCC1)c1cccc(Cl)c1)c1ccc(Cl)c(Cl)c1` (stereo not drawn) [Example 349], 501 to 2500 nM. As for `Cc1ccc(C(CCN2CCCCC2)CNC(=O)Nc2cc(Cl)cc(Cl)c2)cc1` (stereo not drawn) [Example 350], the figure is 51 to 500 nM; as for `Cc1ccc(C(CCN2CCC(N3CCCCC3)CC2)CNC(=O)Nc2cc(Cl)cc(Cl)c2)cc1` (stereo not drawn) [Example 351], 51 to 500 nM. As to `Cc1ccc(C(CCN2CCCCC2)CNC(=O)Nc2ccc(Cl)c(Cl)c2)cc1` (stereo not drawn) [Example 352], the Ki was 51 to 500 nM. In the case of `Cc1ccc(C(CCN2CCCCC2)CNC(=O)Nc2cc(Cl)ccc2Cl)cc1` (stereo not drawn) [Example 353] it was 51 to 500 nM; in that of `COc1cc(NC(=O)NCC(CCN2CCCCC2)c2ccc(C)cc2)cc(OC)c1` (stereo not drawn) [Example 354], 501 to 2500 nM. In the case of `Cc1ccc(C(CCN2CCCCC2)CNC(=O)Nc2cc(C)cc(C)c2)cc1` (stereo not drawn) [Example 355] it was 501 to 2500 nM.

Consider `O=C(NCC(CCN1CCC(N2CCCCC2)CC1)c1ccc(Cl)c(Cl)c1)Nc1ccc(F)c([N+](=O)[O-])c1` (stereo not drawn) [Example 356], for which the Ki lay in the range of 51 to 500 nM. In the case of `O=C(NCC(CCN1CCC(N2CCCCC2)CC1)c1ccc(Cl)c(Cl)c1)Nc1cccc(Cl)c1Cl` (stereo not drawn) [Example 358] it was 501 to 2500 nM. On to `O=C(NCC(CCN1CCC(N2CCCCC2)CC1)c1ccc(Cl)c(Cl)c1)Nc1ccc(Br)cc1Br` (stereo not drawn) [Example 359], for which the Ki fell in the range of 501 to 2500 nM.

Turning to `O=C(NCC(CCN1CCC(N2CCCCC2)CC1)c1ccc(Cl)c(Cl)c1)Nc1cc(Cl)ccc1Cl` (stereo not drawn) [Example 360], the Ki was 501 to 2500 nM. As for `Cc1ccc(NC(=O)NCC(CCN2CCC(N3CCCCC3)CC2)c2ccc(Cl)c(Cl)c2)cc1F` (stereo not drawn) [Example 361], the Ki was in the range of 501 to 2500 nM. As to `O=C(NCC(CCN1CCC(N2CCCCC2)CC1)c1ccc(Cl)c(Cl)c1)Nc1ccc(OC(F)(F)F)cc1` (stereo not drawn) [Example 362], the inhibition constant Ki fell in the range of 501 to 2500 nM. For the molecule `O=C(NCC(CCN1CCC(N2CCCCC2)CC1)c1ccc(Cl)c(Cl)c1)Nc1ccc(F)c(F)c1F` (stereo not drawn) [Example 363], the Ki lay within 501 to 2500 nM.

In the case of `Cn1cnc(CCNCCC(CNC(=O)Nc2cc(C(F)(F)F)cc(C(F)(F)F)c2)c2ccc(Cl)c(Cl)c2)c1` (stereo not drawn) [Example 367], the Ki is 501 to 2500 nM. As for `O=C(NCC(CCN1CCC(N2CCCCC2)CC1)c1ccc(F)c(F)c1)Nc1ccc(Cl)c(Cl)c1` (stereo not drawn) [Example 369], the Ki lay within 501 to 2500 nM. `COc1cc(NC(=O)NCC(CCN2CCC(N3CCCCC3)CC2)c2ccc(Cl)c(Cl)c2)cc(OC)c1` (stereo not drawn) [Example 370]: the Ki lay within 501 to 2500 nM.

The record behind these values is patent US7034056B2, “Aryl and biaryl compounds having MCH modulatory activity” (Pharmacopeia Drug Discovery, inc., priority 2001, dated 2006).
